Experimental data reported in article PMC9916969 (International Journal of Molecular Sciences, 2023).
Read-outs that look alike come from different tables or passages of the source.

How the values were obtained:
β-amyloid (1–42) (Aβ42) = β-amyloid (1–42) (Aβ42) (Homo sapiens, UniProt P05067); experiment: Inhibition of Aβ42 self-aggregation (thioflavin T); assay type: biochemical; conditions: Aβ42 50 µM; compound 100 µM; 24 h, 37 °C; thioflavin T; read-out: Inhibition of Aβ42 Self-Aggregation
Method: The inhibitory activity of tested hybrids against the self-aggregation of Aβ42 was determined in vitro using the thioflavin T (ThT) fluorimetric assay. According to [84], the ThT test is ideal for preliminary screening of inhibitors of Aβ42 self-aggregation, as it enables the quantitative testing of large numbers of compounds within a relatively short time.
The influence of the inhibitory effect of the test compounds toward Aβ42 self-aggregation was determined using the thioflavin T (ThT) fluorescence method with minor modifications. This assay is based on a specific interaction between the fluorescent dye thioflavin T that binds to the β-sheets of assembled amyloid fibrils leading to a significant increase in fluorescence signal. Therefore, the decrease in ThT fluorescence correlates with the ability of the studied compounds to inhibit the formation of amyloid aggregates.
One mg of lyophilized HFIP-pretreated Aβ42 from BACHEM (Bubendorf, Switzerland) was dissolved in DMSO to obtain a stable initial solution ([Aβ42] = 500 μM); then it was aliquoted and stored at −20 °C.
For the measurement of Aβ42 self-aggregation and amyloid fibril inhibition studies by the tested compounds, aliquots of 500 μM Aβ42 stock solution were diluted in 215 mM Na-phosphate buffer pH = 8.0 to a final concentration of 50 μM Aβ42. Then the samples were incubated for 24 h at 37 °C without stirring in the absence (base level of Aβ42 self-aggregation, control) or presence of the test compounds. Myricetin and propidium iodide were used as reference compounds (positive controls). All compounds were used in a concentration of 100 µM. To quantify Aβ42 fibril formation, after incubation, 5 μM ThT in 50 mM glycine-NaOH buffer pH 8.5 was added to the solutions to a final concentration of 4 μM ThT and the fluorescence was measured at 440 nm (excitation) and 485 nm (emission). Analyses were performed with a FLUOStar Optima microplate reader (LabTech, Ortenberg, Germany). The blanks consisted of 215 mM Na-phosphate buffer, pH = 8.0, 20% (v/v) DMSO or test compounds, respectively. Each assay was run in triplicate.

equine serum BChE [1] = molecular target: T1, equine serum BChE (Equus caballus, UniProt P81908); experiment: biochemical; conditions: mean ± SEM, n = 3, read-out: Inhibitory activity against BChE, IC50
T1 construct: human erythrocyte AChE, equine serum BChE, and porcine liver CES were used; purchased Sigma-Aldrich; host or cells: equine serum (tissue-derived)
T1 sequence (P81908 whole entry): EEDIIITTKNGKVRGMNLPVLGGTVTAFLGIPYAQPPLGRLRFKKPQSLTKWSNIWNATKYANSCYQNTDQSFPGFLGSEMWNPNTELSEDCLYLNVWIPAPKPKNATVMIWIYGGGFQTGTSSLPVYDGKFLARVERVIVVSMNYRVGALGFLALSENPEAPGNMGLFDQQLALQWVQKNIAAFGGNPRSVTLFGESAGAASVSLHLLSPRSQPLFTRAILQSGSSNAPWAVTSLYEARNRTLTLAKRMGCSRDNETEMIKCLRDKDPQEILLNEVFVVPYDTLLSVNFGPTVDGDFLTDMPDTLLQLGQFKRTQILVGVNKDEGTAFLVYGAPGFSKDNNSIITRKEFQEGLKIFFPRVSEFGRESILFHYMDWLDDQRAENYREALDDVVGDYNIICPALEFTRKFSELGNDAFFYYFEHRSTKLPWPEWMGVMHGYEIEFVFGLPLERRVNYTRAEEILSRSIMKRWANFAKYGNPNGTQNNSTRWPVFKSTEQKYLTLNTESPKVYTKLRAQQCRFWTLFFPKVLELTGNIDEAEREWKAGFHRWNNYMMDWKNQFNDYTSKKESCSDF
Source text: (§1) Assessment of the esterase profile of new potential anti-AD molecules enables the estimation of both the primary pharmacological effects of the tested compounds—their inhibition of AChE and BChE—and their possible unwanted side effect—inhibition of CES, which hydrolyzes numerous ester-containing drugs. For the esterase profile evaluation, human erythrocyte AChE, equine serum BChE, and porcine liver CES were used. These sources of BChE and CES were employed because of their relatively low cost, high sequence identity to human enzymes, and the exploratory character of this work.
(§2) Chromophore absorbances were measured with a FLUOStar Optima microplate reader (BMG Labtech, Ortenberg, Germany). […] Initially, we used a single concentration of 20 µM for all compounds.

human erythrocyte AChE = molecular target: T2, human erythrocyte AChE (Homo sapiens, UniProt P22303); experiment: biochemical; conditions: mean ± SEM, n = 3, read-out: Inhibitory activity against AChE, IC50
T2 construct: human erythrocyte AChE, equine serum BChE, and porcine liver CES were used; purchased Sigma-Aldrich; host or cells: human erythrocytes (tissue-derived)
T2 sequence (P22303 32-617 isoform P22303-2 limits assumed): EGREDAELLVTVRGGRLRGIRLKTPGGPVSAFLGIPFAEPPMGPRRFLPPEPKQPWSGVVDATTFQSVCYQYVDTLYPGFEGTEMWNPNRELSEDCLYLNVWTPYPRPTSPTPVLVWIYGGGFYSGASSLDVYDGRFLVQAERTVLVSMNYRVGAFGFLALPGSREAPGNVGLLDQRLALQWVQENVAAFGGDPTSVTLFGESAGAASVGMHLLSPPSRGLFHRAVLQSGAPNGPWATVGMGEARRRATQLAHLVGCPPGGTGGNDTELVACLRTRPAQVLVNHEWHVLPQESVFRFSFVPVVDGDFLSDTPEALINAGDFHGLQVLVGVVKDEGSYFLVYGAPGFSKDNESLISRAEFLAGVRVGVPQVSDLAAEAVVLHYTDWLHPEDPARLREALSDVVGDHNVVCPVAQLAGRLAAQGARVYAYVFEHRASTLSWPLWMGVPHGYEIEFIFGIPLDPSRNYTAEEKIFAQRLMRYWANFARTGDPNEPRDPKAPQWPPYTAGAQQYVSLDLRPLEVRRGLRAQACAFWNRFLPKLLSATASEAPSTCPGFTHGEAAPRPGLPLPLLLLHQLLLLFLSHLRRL
Source text: as §1, §2

EeAChE PAS = molecular target: T3, EeAChE PAS (Electrophorus electricus, UniProt O42275); assay type: binding; conditions: compound 20 µM; EeAChE 7 µM; propidium iodide 8 µM
T3 construct: The enzyme was electric eel AChE (EeAChE type VI-S, lyophilized powder, Sigma-Aldrich); purchased Sigma-Aldrich type VI-S; host or cells: electric eel (tissue-derived)
T3 sequence (O42275 24-633): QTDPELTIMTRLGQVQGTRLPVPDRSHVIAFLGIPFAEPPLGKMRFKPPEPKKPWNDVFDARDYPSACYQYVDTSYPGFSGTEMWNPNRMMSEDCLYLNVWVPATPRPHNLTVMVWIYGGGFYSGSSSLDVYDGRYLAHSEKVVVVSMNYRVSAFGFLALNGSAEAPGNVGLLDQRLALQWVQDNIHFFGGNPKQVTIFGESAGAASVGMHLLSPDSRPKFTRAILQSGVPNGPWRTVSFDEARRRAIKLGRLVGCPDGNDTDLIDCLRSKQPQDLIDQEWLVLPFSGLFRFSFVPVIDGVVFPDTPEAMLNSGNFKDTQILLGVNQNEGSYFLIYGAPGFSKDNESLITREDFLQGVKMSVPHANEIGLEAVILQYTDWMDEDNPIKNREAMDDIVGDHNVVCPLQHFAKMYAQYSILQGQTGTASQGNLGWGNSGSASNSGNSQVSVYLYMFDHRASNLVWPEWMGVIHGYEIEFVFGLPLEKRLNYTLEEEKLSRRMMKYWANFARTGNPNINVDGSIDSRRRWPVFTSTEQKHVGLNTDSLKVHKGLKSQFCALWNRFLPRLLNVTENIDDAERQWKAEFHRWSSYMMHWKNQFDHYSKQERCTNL
Source text: This method is widely used as a screening approach to assess the potential ability of compounds to block AChE-induced β-amyloid aggregation. This is because when the compounds bind to the AChE PAS, they prevent the binding of β-amyloid, thereby inhibiting its aggregation.
The enzyme was electric eel AChE (EeAChE type VI-S, lyophilized powder, Sigma-Aldrich). We selected this source of AChE for consistency with our other reports and because of the purity, specific activity, and lower cost compared to human AChE.
Propidium iodide (final concentration 8 μM) was then added for a further 15 min incubation, and the fluorescence spectrum was taken (530 nm excitation and 600 nm emission) using a FLUOStar Optima microplate reader. The same concentration of propidium iodide in the Tris buffer was used as the blank. Triplicate determinations were recorded and the results were calculated via the following equation:% Displacement = 100 − (IFAChE+ Propidium + inhibitor/IFAChE + Propidium) × 100, where IFAChE + Propidium = fluorescence intensity of propidium iodide associated with AChE in the absence of the test compound (taken as 100%), and IFAChE + Propidium + inhibitor = fluorescence intensity of propidium iodide associated with AChE in the presence of the test compound.

[2] = Metal chelation by UV-Vis spectroscopy, Cu2+; conditions: ethanol, 25 °C; compound and metal 40 μM; difference spectra; two bands per compound
porcine liver CES [3] = experiment: In vitro CES inhibition (4-NPA substrate); assay type: biochemical; conditions: compound 20 µM, n.a. = not active
Source text: as §1, §2

FRAP assay = conditions: Trolox equivalents; 60 min, 37 °C; n.a. = not active
Method: The Ferric Reducing Antioxidant Power (FRAP) test involves reduction of the ferric 2,4,6-tripyridyl-s-triazine complex [Fe(TPTZ)2]^3+ to an intense-blue ferrous complex [Fe(TPTZ)2]^2+ [92], as previously reported. Results are given as Trolox Equivalents (TE).
The FRAP (ferric reducing antioxidant power) assay proposed by Benzie and Strain [92] was modified to be performed in 96-well microplates as described in detail in [53]. The FRAP reagent contained 2.5 mL of 10 mM TPTZ (2,4,6-tris(2-pyridyl)-s-triazine, Sigma-Aldrich) solution in 40 mM HCl, 2.5 mL of 20 mM FeCl3 (Sigma-Aldrich) in distilled water and 25 mL of 0.3 M acetate buffer (pH 3.6). Aliquots of 10 µL of the test compound dissolved in DMSO (0.5 mM) were placed in quadruplicate. Absorbance was measured at a wavelength of 593 nm after 60 min incubation at 37 °C. In each case, Trolox was used as a reference compound to obtain the standard curve. The AO activity was calculated with respect to the activity of Trolox and expressed as Trolox equivalents (TE)—the values calculated as the ratio of the concentrations of Trolox and the test compound resulting in the same effect on ferric reducing activity.

[4] = ABTS radical cation scavenging assay; parameters: key to ABTS^•+ Scavenging Activity, TEAC: TEAC: ratio of compound slope to Trolox slope (Trolox equivalents); conditions: 1 h incubation
Method: In the ABTS assay, the dark-green ABTS cation-radical (ABTS^•+) is quenched by interaction with AOs. The consequent decrease in absorbance is followed spectrophotometrically per the previously described method.
Radical scavenging activity of the compounds was assessed using the ABTS radical cation (ABTS^•+) decolorization assay with some modifications. ABTS (2,2′-azinobis-(3-ethylbenzothiazoline-6-sulfonic acid) was purchased from Tokyo Chemical Industry Co., Ltd. (Tokyo, Japan); potassium persulfate (dipotassium peroxodisulfate), Trolox (6-hydroxy-2,5,7,8-tetramethylchroman-2-carboxylic acid), and HPLC-grade ethanol and DMSO were obtained from Sigma-Aldrich (Saint Louis, MO, USA). Aqueous solutions were prepared using deionized water. All tested compounds were dissolved in DMSO.
The solution of cation radical ABTS^•+ was produced by incubation of an aqueous solution of 7 mM ABTS and 2.45 mM potassium persulfate solution in equal quantities for 12–16 h at room temperature in the dark. Radical scavenging capacity of the compounds was analyzed by mixing 10 μL of compound with 240 μL of ABTS^•+ working solution in ethanol (100 μM final concentration). The reaction was monitored for an hour at 30 °C with an interval of 10 min. Data are given for 1 h of incubation of compounds with ABTS^•+. The reduction in absorbance was measured spectrophotometrically at 734 nm using an xMark microplate UV/VIS spectrophotometer (Bio-Rad, Hercules, CA, USA). Ethanol blanks were run in each assay. Values were obtained from five replicates of each sample and three independent experiments.
The standard AO Trolox was used as a reference compound. AO capacity as Trolox equivalent (TEAC) values was determined as the ratio between the slopes obtained from the linear correlation of the ABTS radical absorbance with the concentrations of tested compounds and Trolox. Ascorbic acid was used as a positive control. […]. The compounds were tested in the concentration range of 0.5–100 µM.

[5] = cited from earlier work
equine serum BChE [6] = molecular target: T1, equine serum BChE; conditions: compound 20 µM; cited from earlier work
porcine liver CES [7] = conditions: compound 20 µM; cited from earlier work

Chain of β-amyloid (1–42) (Aβ42) (P05067 672-713 limits assumed): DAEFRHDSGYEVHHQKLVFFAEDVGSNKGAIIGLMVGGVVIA

Row | Compound | inhibition at 100 µM (β-amyloid (1–42) (Aβ42)) [%] | IC50 (equine serum BChE [1]) [nM] | IC50 (human erythrocyte AChE) [nM] | Propidium Displacement from EeAChE PAS (EeAChE PAS) [%] | Shift of Absorbance, Cu(II) [2] [nm] | Inhibitory activity against CES, inhibition at 20 µM (porcine liver CES [3]) [%] | FRAP, TE (FRAP assay) | IC50 ([4]; 50% reduction of ABTS radical cation) [nM] | ABTS^•+ Scavenging Activity, TEAC ([4]; Trolox equivalent, n.a. = not active) | IC50 ([5]; 50% reduction of ABTS radical cation, read-out: ABTS^•+ Scavenging Activity, IC50) [nM] | ABTS^•+ Scavenging Activity, TEAC ([5]; Trolox equivalent) | Inhibitory activity against BChE, inhibition at 20 µM (equine serum BChE [6]) [%] | Inhibitory activity against CES, inhibition at 20 µM (porcine liver CES [7]) [%]
1 | COc1ccccc1C(=O)NCCCCCCNc1c2c(nc3ccccc13)CCCC2 [6b] | 30.8 ± 2.1 | 37.7 ± 3.1 | 646 ± 41 | 12.5 ± 0.8 | 254 | 8.0 ± 1.3 | 0.02 |  |  |  |  |  | 
2 | Oc1ccccc1/C=N/CCCCCCNc1c2c(nc3ccccc13)CCCC2 [10b] | 67.9 ± 5.4 | 35.4 ± 1.7 | 103 ± 6 | 18.2 ± 1.4 | 255 | 17.9 ± 0.8 | 0.03 | 31800 ± 1600 | 0.47 ± 0.04 |  |  |  | 
3 | N-hexylsalicylamide |  |  |  |  |  |  |  |  |  | 46500 ± 2300 | 0.39 ± 0.04 | 10.6 ± 0.8 | 4.9 ± 1.0
